{"source": "paper PMC6154679", "about": "“Nine Different Chemical Species and Action Mechanisms of Pancreatic Lipase Ligands Screened Out from Forsythia suspensa Leaves All at One Time” (Molecules : A Journal of Synthetic Chemistry and Natural …, 2017)", "target": "T1, pancreatic lipase (PL) (Sus scrofa, UniProt P00591)", "T1 construct": "gene PNLIP", "T1 sequence (P00591 1-450)": "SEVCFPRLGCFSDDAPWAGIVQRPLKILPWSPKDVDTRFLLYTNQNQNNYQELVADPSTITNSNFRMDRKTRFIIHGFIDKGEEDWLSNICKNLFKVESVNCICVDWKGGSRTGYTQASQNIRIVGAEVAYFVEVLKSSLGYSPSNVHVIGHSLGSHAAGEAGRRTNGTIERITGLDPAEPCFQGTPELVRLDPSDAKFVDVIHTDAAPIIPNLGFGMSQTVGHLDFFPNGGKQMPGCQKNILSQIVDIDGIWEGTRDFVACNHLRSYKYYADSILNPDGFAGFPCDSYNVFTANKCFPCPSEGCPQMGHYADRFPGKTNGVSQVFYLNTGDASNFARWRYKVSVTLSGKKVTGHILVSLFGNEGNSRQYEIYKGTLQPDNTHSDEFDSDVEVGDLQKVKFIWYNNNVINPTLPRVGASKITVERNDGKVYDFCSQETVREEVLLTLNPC", "assay": "pNPB hydrolysis assay, inhibition rate at […]", "assay_type": "biochemical", "details": "read-out: % inhibition at 5 μg/mL", "data": [{"smiles": "CCCCCCCCCCC[C@@H](C[C@@H]1OC(=O)[C@H]1CCCCCC)OC(=O)[C@H](CC(C)C)NC=O", "note": "[Orlistat]", "values": [{"measurement": "inhibition at 5 µg/mL", "value": 58, "unit": "%"}]}]}
